Residues, ends and D or L forms follow the SMILES beside them.
Key:
Endothelial cells [1] = experiment: Endothelial cell tubule formation assay (tubulogenesis); format: cell-based; parameters: key to Tubulogenesis: 0: Numerous capillary-like tube forming pentagonal network; +: Decrease of capillary-like tubes; ++: Dramatic decrease of capillary-like tubes; +++: Absence of capillary-like tubes
Description: The endothelial cell tubule formation assay is a semi-quantitative assay that was performed to determine the ability of test samples to inhibit this multi-step process, which involves cell adhesion, migration, differentiation and growth, using a commercial kit (Chemicon). Briefly, endothelial cells were seeded on solid gel of Ecmatrix™ (Chemicon), basement proteins prepared from the Engelbreth Holm-Swarm (EHS) mouse tumor in microplate in a E-99 media (Sigma) supplemented with 5% FBS and VEGF (50 ng/ml) in the presence or absence of the test sample. Cells were incubated for a period of 24 hours at 37° C. Pictures were taken on the entire tissue culture dish using a binocular microscope for further evaluation.

[2] = system: blood vessel formation in the vitelline membrane of chick embryo; experiment: Embryonic Vascularization Test (EVT); format: in vivo; details: for EVT activity (in words): in vivo
Description: The Embryonic Vascularization Test (EVT) was performed to determine the ability of test samples to inhibit the formation of new blood vessels (antiangiogenic activity).
The normal development of a chick embryo involves the formation of an external vascular system located in the vitelline membrane which carries nutrients from the vitellus (yolk) to the developing embryo. When placed onto the vitelline membrane, antiangiogenic substances can inhibit the blood vessel formation that occurs in the vitelline membrane. Briefly, methylcellulose discs (an inert solid and transparent matrix) containing different test samples were placed on the external border of the vascular perimeter of the vitelline membrane, where the angiogenic process occurs. Vascularization was assessed 24 hours after disc deposition, and results were expressed as the percent of embryos in which blood vessel formation was affected. The blood vessel formation was considered affected when its growing path was either deviated, or diminished or when there was no growth observed beyond the disc as compared to the negative control. The results are expressed as 0, +, and ++ where 0 is for a lower response than 25 percent of the eggs; + is for a response between 25 and 50 percent; and ++ is for an antiangiogenic response observed in more than 50 percent of the eggs.
(§1) According to the endothelial cell proliferation assay, the relative effectiveness of two compounds is compared by reference to the EC50 thereof. The EC50 is the concentration of compound at which the number of endothelial cells is reduced by 50% as compared to control. The efficacy of the test samples in EVT is established by the percent of eggs with altered angiogenesis at a given inhibitor dose of 0.6 mg of copper equivalent (see FIG. 6 for examples). A comparison of the antiangiogenic activity of the compounds of the present invention with divalent metal salts (CuCl2, MgCl2, ZnCl2, CoCl2) and uncoupled alpha-amino acids, alpha-imino acids, dipeptides, and nitrogenated molecules comprising a carboxylic acid group, such as creatine, is provided to illustrate that the formation of the amino acid-copper complex gives rise to complexes having antiangiogenic activity.

human dermal fibroblasts = experiment: Fibroblast proliferation; format: cell-based; details: 48 hours; free amino acids and Glu-Trp 2.5 mM, CuCl2 1.25 mM
Description: (§2) Endothelial and tumor cell proliferation assays were performed to determine the ability of test samples to inhibit endothelial cell proliferation (antiangiogenic activity), normal cell proliferation,and tumor cell proliferation.
(§3) Endothelial cells (Human umbilical vein endothelial cells (HUVEC), bovine aortic endothelial cells (BAEC)), skeletal muscle cells, human dermal fibroblasts (all from Clonetics, Walkersville, Md.) were respectively maintained in EBM-2, MDEM, SKGM and FGFM-2 complete media according to manufacturer's instructions. Tumor rat glioblastoma cell line (C6) was maintained in DMEM (Sigma, Oaksville, Ontario) supplemented with 10% fetal calf serum (FCS) and antibiotics in 5% CO2. Briefly, cells seeded in 96-well sterile tissue culture dishes were treated with increasing concentrations of different test samples for a period of 48 hours at 37° C. Cell number was then evaluated by a calorimetric assay using the cell proliferation reagent tetrazolium salt and the fluorimetric assay using DNA dye (Hoescht) according to the procedure established by the manufacturer (Boehringer Mannhein). The conversion of these tetrazolium salts into formazan occurs only in metabolically active cells. The percentage of cell inhibition was determined by comparison to untreated cells.

[3] = system: Endothelial cells (HUVEC, BAEC); experiment: Endothelial cell proliferation; format: cell-based, human / bovine; details: for EC50: 48 hours, copper equivalent, NA = less than 50% at 1.25 mM copper equivalent, read-out: EC proliferation (EC50 mM)
Description: as §2, §3, §1

[4] = Affinity of the amino acid with copper; format: physicochemical
[5] = system: bFGF-stimulated blood vessel formation in Matrigel; experiment: Matrigel in vivo angiogenesis assay; parameters: species or system C57B1/6 mice; details: for Matrigel in vivo % inhibition: intra-peritoneal daily 10 days
Description: The Matrigel™ in vivo assay was performed to determine the ability of test samples to inhibit blood vessel formation (antiangiogenic activity) and to establish their bioavailability in vivo.
Briefly, liquid Matrigel™ (Becton Dickinson, Bedford, Mass.) was maintained at 4° C. and mixed thoroughly for at least 3 hours with 1,500 ng/ml basic fibroblast growth factor (bFGF) (R&D Systems, Minneapolis, Minn.) used as the primary angiogenic stimulus. The mixture (0.5 ml) was injected subcutaneously into the ventral midline of C57B1/6 mice, and treatment with different test samples or saline solution was initiated the same day. Additional animals were also injected with Matrigel™ containing no bFGF to serve as baseline controls. The animals were treated daily for a 10 day period (intra-peritonealy, 0.2 ml of each dose). At day 11, animals were injected with FITC-dextran 20 min prior to euthanizing treated mice. Matrigel™ gels were removed along with underlying peritoneum and prepared for FITC-dextran detection by fluorimetry. The concentration of FITC-dextran in the gels was calculated from a known concentration of FITC-dextran using a standard curve. The FITC-dextran content of the gels from compound-treated animals and controls was expressed as a percent of the positive bFGF-treated controls after the baseline control of FITC-dextran levels were subtracted from all groups.

Endothelial cells [6] = experiment: Endothelial cell migration assay (VEGF, modified Boyden chamber); format: cell-based; details: for Cell Migration (% inhibition): copper complexes, concentration not given, VEGF, 4.5 hours
Description: The endothelial cell migration assay was performed to determine the ability of test samples to inhibit the chemotaxic activity of vascular endothelial growth factor (VEGF;R/D System, MN) using a modified Boyden chamber (Transwell™, Corning/Costar). Briefly, polyvinylidene difluoride filters (PVDF) were coated with Pronectin F (Biosources, CA), a constituent of basement membrane barrier. Boyden chambers were assembled by adding VEGF to the culture media in the lower chamber (chemoattractant). Endothelial cells suspended in cultured media in the presence or the absence of the test samples were added to the upper chamber. The chambers were then incubated for a period of 4.5 hours at 37° C. At the end of the incubation period, the cells from both side of the PVDF membrane were fixed with 3.7% formaldehyde. Cells from the upper surface of the membrane were mechanically removed, and the cells remaining on the underside of the membrane were stained with crystal violet (0.5%; Sigma). Cells were then carefully rinsed and the dye fixed to the cells was quantified with a microplate reader ([…]) after its solubilization with a solution of 50% citric acid (0.1M) in water and 50% ethanol.

[7] = system: Lewis lung carcinoma clone M27; experiment: Lewis Lung Carcinoma metastatic mouse model (LLC); format: in vivo, C57BL/10 female mice; details: for Antimetastatic activity (% inhibition) (at 2.5 mg/kg of Cu-complex): intraperitoneal daily for two weeks, lung surface metastases
Source text: The Lewis Lung Carcinoma mouse model (LLC) was used to determine the ability of different test samples to inhibit the formation of metastases within the lung. The Lewis lung carcinoma clone M27, with a high metastatic potential to the lung, was established by Dr P. Brodt (Brodt P, Characterization of two highly metastatic variants of Lewis lung carcinoma with different organ specificities. Cancer Res., 46: 2442, 1986). This model is well established and is known for its predictive correlation between in vitro and in vivo activity. Briefly, LLC cells were transplanted subcutaneously in the axillary region of the right flank of C57BL/10 female mice (Charles River Inc.) When the primary tumor reached a size of 0.5-1.0 cm^3 (day 10 post-inoculation), the tumor was carefully separated from the surrounding healthy tissues. Treatment with different test samples started the day following tumor removal (day 11 post-inoculation). Saline or different test samples were administered daily for two weeks by intraperitoneal injection (0.2 ml of each dose). As previous experiments had shown that a period of approximately two weeks after removal of the primary tumor was sufficient to obtain an average of 30 to 50 nodules on the lung surface, animals were sacrificed in a CO2 chamber two weeks later. Following autopsy, both lungs were removed, weighed and fixed in 10% Bouin's fixative. Lung surface metastases were counted using a stereomicroscope (4×).

[8] = system: Striated muscle cells (skeletal muscle cells); experiment: Striated muscle cell proliferation; format: cell-based; details: 48 hours; free amino acids and Glu-Trp 2.5 mM, CuCl2 1.25 mM
Description: as §2, §3

[9] = copper complexes, concentration not given, VEGF 50 ng/ml, 24 hours
[10] = activity at 0.6 mg equivalent Copper

## C[C@@H](O)[C@H](N)C(=O)[O-].C[C@@H](O)[C@H](N)C(=O)[O-].[Cu+2] [Compound 5, L-Thr:Cu:L-Thr]
Endothelial cells [1]
  Tubulogenesis activity (in words): important activity
Endothelial cells [1]; [9]
  Tubulogenesis: ++
[2]; [10]
  EVT (% of inhibition): ++ (++ more than 50% of inhibition)
Human dermal fibroblasts
  EC50: 1.34 mM
[3]
  EC50: 0.3 mM
[4]
  Affinity of the AA with Cooper: 15.4
[5]; 1.4 mg/Kg equivalent copper
  Matrigel in vivo % inhibition: 47.7%
[5]; 7.0 mg/Kg equivalent copper
  Matrigel in vivo % inhibition: 59.4%
Endothelial cells [6]
  Cell migration activity (in words): important activity
  Cell Migration (% inhibition): 90%

## N[C@@H](Cc1c[nH]cn1)C(=O)[O-].N[C@@H](Cc1c[nH]cn1)C(=O)[O-].[Cu+2] [Compound 10, L-His:Cu:L-His]
Endothelial cells [1]
  Tubulogenesis activity (in words): did not show any activity
Endothelial cells [1]; [9]
  Tubulogenesis: 0
[2]; [10]
  EVT (% of inhibition): 0 (0 non-active (less than 25% of inhibition))
[2]
  EVT activity (in words): inactive
[7]
  Antimetastatic activity (% inhibition) (at 2.5 mg/kg of Cu-complex): 63.0%
[3]
  Endothelial cell proliferation activity (in words): inactive
  EC50: 0.9 mM
[4]
  Affinity of the AA with Cooper: 19.4
[5]; 7.0 mg/Kg equivalent copper
  Matrigel in vivo % inhibition: 63.4%
[5]; mouse, in vivo
  Matrigel in vivo antiangiogenic activity (in words): more active than compound 6
Endothelial cells [6]
  Cell migration activity (in words): did not show any activity
  Cell Migration (% inhibition): 65%

## N[C@@H](CCC(=O)O)C(=O)N[C@@H](Cc1c[nH]c2ccccc12)C(=O)O [Free Glu-Trp, glutamyl-tryptophane, reference compound] (H-Glu-Trp-OH)
Endothelial cells [1]
  Tubulogenesis activity (in words): did not show any activity
Endothelial cells [1]; 2.5 mM free (not complexed) ligand
  Tubulogenesis: 0
[2]; [10]
  EVT (% of inhibition): 0 (0 non-active (less than 25% of inhibition))
[2]
  EVT activity (in words): almost inactive
[7]
  Antimetastatic activity (% inhibition) (at 2.5 mg/kg of Cu-complex): 22.8%
[3]
  Endothelial cell proliferation activity (in words): almost inactive
Endothelial cells [6]
  Cell migration activity (in words): did not show any activity
Endothelial cells [6]; Endothelial cell, 2.5 mM free (not complexed) ligand
  inhibition at 2500 µM: 10%

## (Glu—Trp)2-Cu [Compound 33]
Endothelial cells [1]
  Tubulogenesis activity (in words): important activity
Endothelial cells [1]; [9]
  Tubulogenesis: +++
[2]; 0.6 mg copper equivalent, percent of embryos with affected blood vessel formation, 24 hours after disc deposition
  EVT (% of inhibition): 60%
[2]; [10]
  EVT (% of inhibition): ++ (++ more than 50% of inhibition)
[7]
  Antimetastatic activity (% inhibition) (at 2.5 mg/kg of Cu-complex): 44%
[7]; mouse, in vivo
  Anti-metastatic activity in vivo (in words): more active than the free di-peptide
[8]
  EC50: 0.47 mM
Human dermal fibroblasts
  EC50: 0.66 mM
[3]
  EC50: 0.23 mM
Endothelial cells [6]
  Cell migration activity (in words): important activity
  Cell Migration (% inhibition): 96%
